Four compounds from article PMC10619430, “Xenobiotic Exposure and Migraine-Associated Signaling: A Multimethod Experimental Study Exploring Cellular Assays in Combination with Ex Vivo and In Vivo Mouse Models” (Environmental Health Perspectives, 2023) can be followed below.

The structures appear in SMILES notation. pEC50: −log10 of the molar value.

Assay type in all cases: cell-based
Experiment [1] concerns the target T1, human TRPA1 channel (hTRPA1) (Homo sapiens, UniProt O75762). Kind of experiment: fluo-4 calcium imaging in hTRPA1-HEK vs control cells at […] ([…] of ionomycin, […] of SCA response).
Experiment [2] addresses T1, human TRPA1 channel (hTRPA1). Briefly: fluo-4 calcium imaging in hTRPA1-HEK vs control cells at […]. The conditions noted are these: read-out: % of ionomycin response at 100 μM.
The target is the same in experiment [3]. Kind of experiment: whole-cell patch clamp in hTRPA1-HEK cells vs control cells; calcium imaging.

T1 sequence (O75762 whole entry): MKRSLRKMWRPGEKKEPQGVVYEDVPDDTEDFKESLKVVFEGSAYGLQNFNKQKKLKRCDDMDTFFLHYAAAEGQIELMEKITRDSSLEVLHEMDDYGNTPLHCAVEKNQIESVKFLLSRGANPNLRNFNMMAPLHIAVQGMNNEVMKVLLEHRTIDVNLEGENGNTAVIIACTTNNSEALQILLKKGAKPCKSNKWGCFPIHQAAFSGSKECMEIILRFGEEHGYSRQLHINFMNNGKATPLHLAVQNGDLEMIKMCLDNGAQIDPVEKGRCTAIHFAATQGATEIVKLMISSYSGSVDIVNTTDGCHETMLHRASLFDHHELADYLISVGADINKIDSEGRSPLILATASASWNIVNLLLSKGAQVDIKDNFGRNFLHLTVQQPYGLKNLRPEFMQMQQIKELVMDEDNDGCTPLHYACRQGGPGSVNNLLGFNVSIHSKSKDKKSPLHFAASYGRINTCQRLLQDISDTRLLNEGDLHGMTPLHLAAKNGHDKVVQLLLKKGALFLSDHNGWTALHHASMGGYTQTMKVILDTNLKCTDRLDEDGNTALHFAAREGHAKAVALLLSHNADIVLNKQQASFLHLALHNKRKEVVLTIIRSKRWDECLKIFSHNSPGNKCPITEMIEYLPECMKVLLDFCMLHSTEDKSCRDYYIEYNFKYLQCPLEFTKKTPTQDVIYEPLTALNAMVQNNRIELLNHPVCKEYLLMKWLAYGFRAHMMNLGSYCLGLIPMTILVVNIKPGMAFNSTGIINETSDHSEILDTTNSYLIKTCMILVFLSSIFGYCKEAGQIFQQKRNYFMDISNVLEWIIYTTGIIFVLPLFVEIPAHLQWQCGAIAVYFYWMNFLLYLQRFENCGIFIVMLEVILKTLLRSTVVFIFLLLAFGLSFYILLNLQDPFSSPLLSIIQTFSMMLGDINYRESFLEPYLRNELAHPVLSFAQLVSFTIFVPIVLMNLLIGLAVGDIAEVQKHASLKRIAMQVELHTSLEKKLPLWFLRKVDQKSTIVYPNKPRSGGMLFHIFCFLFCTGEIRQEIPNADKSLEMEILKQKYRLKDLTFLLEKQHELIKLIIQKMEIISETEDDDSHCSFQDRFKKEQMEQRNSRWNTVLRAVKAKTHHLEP

On to `Oc1c(Cl)cc(Cl)c(Cl)c1Cc1c(O)c(Cl)cc(Cl)c1Cl` [HCP, 3,4,6-trichloro-2-[(2,3,5-trichloro-6-hydroxyphenyl)methyl]phenol], for which the activation at 10 µM in experiment [1] is 47%.

Take `O=C(OCc1ccccc1)c1ccc(O)cc1` [BzPa, Benzyl 4-hydroxybenzoate]: the activation at 100 µM in experiment [2] amounted to 34.2%.

For the compound `Oc1c(Cl)c(Cl)c(Cl)c(Cl)c1Cl` [PCP, 2,3,4,5,6-pentachlorophenol], the negative logarithm of the EC50 (pEC50) in experiment [3] is 4.82.

In the case of `CC(C)(c1ccc(O)cc1)c1ccc(O)cc1` [BPA, 4-[2-(4-hydroxyphenyl)propan-2-yl]phenol], in experiment [2], the activation at 100 µM turned out to be 11%.
